pIC50: −log10 of the molar value.
Molecular target: T1, CYP2A6 (Homo sapiens, UniProt P11509)
T1 construct: purchased BD Biosciences Gentest, USA
T1 sequence (P11509 1-494): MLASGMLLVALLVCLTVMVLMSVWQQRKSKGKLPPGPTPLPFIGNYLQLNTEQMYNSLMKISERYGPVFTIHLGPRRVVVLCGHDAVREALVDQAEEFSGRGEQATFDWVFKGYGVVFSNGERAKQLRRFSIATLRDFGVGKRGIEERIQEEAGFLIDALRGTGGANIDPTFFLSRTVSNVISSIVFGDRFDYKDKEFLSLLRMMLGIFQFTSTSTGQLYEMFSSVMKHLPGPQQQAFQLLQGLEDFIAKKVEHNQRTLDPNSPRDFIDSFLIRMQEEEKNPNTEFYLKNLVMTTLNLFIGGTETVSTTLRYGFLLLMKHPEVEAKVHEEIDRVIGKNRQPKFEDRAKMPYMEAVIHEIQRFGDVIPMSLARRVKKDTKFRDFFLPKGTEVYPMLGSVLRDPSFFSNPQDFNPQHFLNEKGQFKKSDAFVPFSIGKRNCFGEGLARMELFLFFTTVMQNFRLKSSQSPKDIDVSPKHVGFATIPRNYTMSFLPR
Assay: CYP2A6 inhibition, coumarin to Umbelliferone fluorescence assay in microsomes
Type: biochemical
Settings: substrate coumarin 0.003 mM, 60 min at 37° C.; read-out: CYP2A6 inhibitor activity IC50
Protocol: Test compounds that inhibit the activity of CYP2A6 are identified by using the same principle as described in Example 28, first paragraph.
A test compound (details see list below) was incubated with CYP2A6 in the presence of a cytochrome P450 reductase. CYP2A6 and P450 reductase were employed in form of microsomes (BD Biosciences Gentest, USA). Microsomes were used which contained 2 pmoles CYP2A6 and an amount of NADPH-P450 reductase corresponding to cytochrome c reductase activity of 87 nmole/(min×mg protein). […] The concentration of the standard substrate coumarin was 0.003 mM.
The samples were analysed spectrofluorometrically according to the procedure described in Example 28.

Question: How did the pIC50 turn out when `CCCCCCC1=C(C)CCC1=O` [Compound ID 3, 2-hexyl-3-methylcyclopent-2-enone] was run?
Answer: The pIC50 was 4.89.

Question: How did the pIC50 turn out when `CC/C=C\CC1=C(C)CCC1=O` [Compound ID 10, (Z)-3-methyl-2-(pent-2-enyl)cyclopent-2-enone] was run?
Answer: The pIC50 was 4.27.

Question: `CCCCCn1ccnc1` [Compound ID 28, 1-pentyl-1H-imidazole] was tested. Which pIC50 did it give?
Answer: Its pIC50 is 5.70.

Question: `CC/C=C\Cn1ccnc1` [Compound ID 54, (Z)-1-(pent-2-enyl)-1H-imidazole] was tested. Which pIC50 did it give?
Answer: Its pIC50 is 5.15.

Question: How did the pIC50 turn out when `CCCCC1OC(=O)CC1C` (stereo not shown) [Compound ID 11, 4-methyl-5-butyldihydrofuran-2(3H)-one] was run?
Answer: Its pIC50 is 4.25.

Molecular target: T2, CYP2A13 (Homo sapiens, UniProt Q16696)
T2 sequence (Q16696 1-494): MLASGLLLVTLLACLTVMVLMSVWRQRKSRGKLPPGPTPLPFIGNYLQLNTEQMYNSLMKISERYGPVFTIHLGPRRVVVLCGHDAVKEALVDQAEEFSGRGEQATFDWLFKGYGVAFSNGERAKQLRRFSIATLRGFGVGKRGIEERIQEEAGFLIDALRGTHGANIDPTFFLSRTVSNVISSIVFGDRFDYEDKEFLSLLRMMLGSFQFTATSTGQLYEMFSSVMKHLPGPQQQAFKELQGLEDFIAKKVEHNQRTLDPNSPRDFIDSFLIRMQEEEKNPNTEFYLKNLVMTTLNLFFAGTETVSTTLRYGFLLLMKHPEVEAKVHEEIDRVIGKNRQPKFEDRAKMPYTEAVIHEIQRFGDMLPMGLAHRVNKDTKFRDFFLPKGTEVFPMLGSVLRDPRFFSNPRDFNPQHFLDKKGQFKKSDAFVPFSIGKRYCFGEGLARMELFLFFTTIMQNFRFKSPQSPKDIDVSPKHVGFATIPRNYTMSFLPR
Assay: CYP2A13 inhibition, coumarin to 7-hydroxy-coumarin (Umbelliferone) fluorescence assay in microsomes
Settings: not given

Question: With `O=C1CCC2CCCCC2O1` (stereo not shown) [Compound ID 45, octahydrocoumarin] as the compound, how does the pIC50 read?
Answer: Its pIC50 is 5.18.

Question: `c1cn2c(n1)CCCCCCCCCC2` [Compound ID 53, 5,6,7,8,9,10,11,12,13,14-decahydroimidazo[1,2-a][1]azacyclododecine] was tested. Which pIC50 did it give?
Answer: The pIC50 was 5.07.

Question: How did the pIC50 turn out when `CC/C=C\C[C@@H]1C(=O)CC[C@@H]1CC(=O)OC` [Compound ID 25, (Z)-methyl 2-(3-oxo-2-(pent-2-enyl)cyclopentyl)acetate] was run?
Answer: The pIC50 was 5.46.

Question: With `c1ncc2c(n1)CCCCCCCC2` [Compound ID 26, 5,6,7,8,9,10,11,12-octahydrocyclodeca[d]pyrimidine] as the compound, how does the pIC50 read?
Answer: The pIC50 was 5.43.

Question: `c1nc2c([nH]1)CCCCCCCCC2` [Compound ID 35, 1,4,5,6,7,8,9,10,11,12-decahydrocycloundeca[d]imidazole] was tested. Which pIC50 did it give?
Answer: The pIC50 was 5.30.

Question: `c1nc2c([nH]1)CCCCCCCCCC2` [Compound ID 59, 4,5,6,7,8,9,10,11,12,13-decahydro-1H-cyclododeca[d]imidazole] was tested. Which pIC50 did it give?
Answer: Its pIC50 is 4.94.

Question: How did the pIC50 turn out when `CCCCCC1=CCCC1=O` [Compound ID 51, 2-pentylcyclopent-2-enone] was run?
Answer: The pIC50 was 5.08.

Question: With `c1cnc2c(n1)CCCCCCCCCC2` [Compound ID 42, 5,6,7,8,9,10,11,12,13,14-decahydrocyclododeca[b]pyrazine] as the compound, how does the pIC50 read?
Answer: Its pIC50 is 5.21.

Question: How did the pIC50 turn out when `c1cn2c(n1)CCCCCCCCCCC2` [Compound ID 64, 6,7,8,9,10,11,12,13,14,15-decahydro-5H-imidazo[1,2-a][1]azacyclotridecine] was run?
Answer: Its pIC50 is 4.84.

Question: How did the pIC50 turn out when `CCOC(=O)CCCn1ccnc1` [Compound ID 49, ethyl 4-(1H-imidazol-1-yl)butanoate] was run?
Answer: The pIC50 was 5.11.

Question: With `CCCCCCC1CCC(=O)O1` (stereo not shown) [Compound ID 47, 5-hexyldihydrofuran-2(3H)-one] as the compound, how does the pIC50 read?
Answer: Its pIC50 is 5.14.

Question: With `CCCCCCC1=C(C)CCC1=O` [Compound ID 3, 2-hexyl-3-methylcyclopent-2-enone] as the compound, how does the pIC50 read?
Answer: The pIC50 was 6.40.

Question: How did the pIC50 turn out when `CCCCCC1C(=O)C(C)CC1C(=O)OC` (stereo not shown) [Compound ID 50, Methyl 4-methyl-3-oxo-2-pentylcyclopentanecarboxylate] was run?
Answer: Its pIC50 is 5.11.

Question: How did the pIC50 turn out when `CCCCCCC1(C)CCC(=O)O1` (stereo not shown) [Compound ID 31, 5-hexyl-5-methyldihydrofuran-2(3H)-one] was run?
Answer: The pIC50 was 5.34.

Question: `CCCCCC1OC(=O)CC1C` (stereo not shown) [Compound ID 12, 4-methyl-5-pentyldihydrofuran-2(3H)-one] was tested. Which pIC50 did it give?
Answer: Its pIC50 is 5.77.

Question: With `CCCCCC1C(=O)CCC1C` (stereo not shown) [Compound ID 32, 3-methyl-2-pentylcyclopentanone] as the compound, how does the pIC50 read?
Answer: The pIC50 was 5.32.

Question: How did the pIC50 turn out when `CCCCC1CCC(=O)O1` (stereo not shown) [Compound ID 63, 5-butyldihydrofuran-2(3H)-one] was run?
Answer: Its pIC50 is 4.82.

Question: How did the pIC50 turn out when `c1nnc2n1CCCCCCCCCCC2` [Compound ID 43, 6,7,8,9,10,11,12,13,14,15-decahydro-5H-[1,2,4]triazolo[4,3-a][1]azacyclotridecine] was run?
Answer: The pIC50 was 5.20.

Question: How did the pIC50 turn out when `CCCCCCC1CCCC1=O` (stereo not shown) [Compound ID 27, 2-hexylcyclopentanone] was run?
Answer: Its pIC50 is 5.38.

Question: How did the pIC50 turn out when `CCCCCCC1=CCCC1=O` [Compound ID 30, 2-hexylcyclopent-2-enone] was run?
Answer: Its pIC50 is 5.35.

Question: `CC/C=C\CC1CCCC(=O)O1` (stereo not shown) [Compound ID 22, (Z)-6-(pent-2-enyl)tetrahydro-2H-pyran-2-one] was tested. Which pIC50 did it give?
Answer: The pIC50 was 5.48.

Question: How did the pIC50 turn out when `CC/C=C\CCOC(=O)C1CCCC1=O` (stereo not shown) [Compound ID 61] was run?
Answer: The pIC50 was 4.90.

Question: With `CC/C=C\CC1=C(C)CCC1=O` [Compound ID 10, (Z)-3-methyl-2-(pent-2-enyl)cyclopent-2-enone] as the compound, how does the pIC50 read?
Answer: The pIC50 was 5.80.

Question: `c1nc2c(o1)CCCCCC2` [Compound ID 60, 4,5,6,7,8,9-hexahydrocycloocta[d]oxazole] was tested. Which pIC50 did it give?
Answer: The pIC50 was 4.94.

Question: How did the pIC50 turn out when `O=C1CCCCCCCCCCCN1` [Compound ID 36, azacyclotridecan-2-one] was run?
Answer: The pIC50 was 5.28.

Question: How did the pIC50 turn out when `CCCCCn1ccnc1` [Compound ID 28, 1-pentyl-1H-imidazole] was run?
Answer: Its pIC50 is 5.38.

Question: How did the pIC50 turn out when `OCCCCn1ccnc1` [Compound ID 68, 4-(1H-imidazol-1-yl)butan-1-ol] was run?
Answer: Its pIC50 is 4.79.

Question: `O=C1CCCCCCCCCCN1` [Compound ID 65, azacyclododecan-2-one] was tested. Which pIC50 did it give?
Answer: Its pIC50 is 4.81.

Question: How did the pIC50 turn out when `CCCCCC1=C(C)CCC1=O` [Compound ID 7, 2-pentyl-3-methylcyclopent-2-enone] was run?
Answer: Its pIC50 is 5.92.

Question: `CC/C=C\Cn1ccnc1` [Compound ID 54, (Z)-1-(pent-2-enyl)-1H-imidazole] was tested. Which pIC50 did it give?
Answer: Its pIC50 is 5.03.

Question: With `N#CCCCCn1ccnc1` [Compound ID 55, 5-(1H-imidazol-1-yl)pentanenitrile] as the compound, how does the pIC50 read?
Answer: Its pIC50 is 5.02.

Question: `c1cnc2c(c1)CCCCCCCCCC2` [Compound ID 24, 5,6,7,8,9,10,11,12,13,14-decahydrocyclododeca[b]pyridine] was tested. Which pIC50 did it give?
Answer: Its pIC50 is 5.46.

Question: With `CC/C=C/CC1=C(CC(=O)OC)CCC1=O` [Compound ID 52] as the compound, how does the pIC50 read?
Answer: The pIC50 was 5.08.

Question: How did the pIC50 turn out when `c1nc2c(o1)CCCCCCCCC2` [Compound ID 14, 5,6,7,8,9,10,11,12-octahydro-4H-cycloundeca[d]oxazole] was run?
Answer: Its pIC50 is 5.70.

Question: How did the pIC50 turn out when `CCCCC/C=C/CC1CCCC1=O` (stereo not shown) [Compound ID 18, (E)-2-(oct-2-enyl)cyclopentanone] was run?
Answer: The pIC50 was 5.55.

Question: With `CCCCCC12CC1(C)CCC2=O` (stereo not shown) [Compound ID 8] as the compound, how does the pIC50 read?
Answer: Its pIC50 is 5.85.

Question: With `CCCCCC1C(=O)CCC1CC(=O)OC` (stereo not shown) [Compound ID 37, methyl 2-(3-oxo-2-pentylcyclopentyl)acetate] as the compound, how does the pIC50 read?
Answer: Its pIC50 is 5.28.

Question: `CCCCCCN1C(=O)CCC1C` (stereo not shown) [Compound ID 48] was tested. Which pIC50 did it give?
Answer: The pIC50 was 5.13.

Question: `CCCCC1OC(=O)CC1C` (stereo not shown) [Compound ID 11, 4-methyl-5-butyldihydrofuran-2(3H)-one] was tested. Which pIC50 did it give?
Answer: The pIC50 was 5.80.

Question: With `CCCCCN1C(=O)CC[C@H]1C(=O)OCC` [Compound ID 19] as the compound, how does the pIC50 read?
Answer: Its pIC50 is 5.52.

Question: `CC1CCC2(CCC(=O)O2)CC1` (stereo not shown) [Compound ID 69, 8-methyl-1-oxaspiro[4.5]decan-2-one] was tested. Which pIC50 did it give?
Answer: The pIC50 was 4.75.

Question: With `CC/C=C\CC1C(=O)CCC1C` (stereo not shown) [Compound ID 17] as the compound, how does the pIC50 read?
Answer: The pIC50 was 5.55.

Question: `CCC=CCCC1(C)CCC(=O)O1` (mixture of isomers) [Compound ID 62, (E/Z)-5-(hex-3-enyl)-5-methyldihydrofuran-2(3H)-one] was tested. Which pIC50 did it give?
Answer: Its pIC50 is 4.90.

Question: `CCC1CCC2(CCC(=O)O2)CC1` (stereo not shown) [Compound ID 29, 8-ethyl-1-oxaspiro[4.5]decan-2-one] was tested. Which pIC50 did it give?
Answer: The pIC50 was 5.37.

Same assay, conditions: read-out: CYP2A13 inhibitor activity IC50; substrate coumarin 0.006 mM, 60 min at 37° C.

Question: With `CC/C=C/CCn1ccnc1` [Compound ID 46, (E)-1-(hex-3-enyl)-1H-imidazole] as the compound, how does the pIC50 read?
Answer: The pIC50 was 5.17.

Question: How did the pIC50 turn out when `CC(C)CCn1ccnc1` [Compound ID 39, 1-isopentyl-1H-imidazole] was run?
Answer: The pIC50 was 5.25.

Question: `CC(C)=CCn1ccnc1` [Compound ID 40, 1-(3-methylbut-2-enyl)-1H-imidazole] was tested. Which pIC50 did it give?
Answer: Its pIC50 is 5.24.
